pEC50: −log10 of the molar value.
Columns and labels:
[1] = biological target: T1, GPR119 (Homo sapiens, UniProt Q8TDV5); test: cAMP Accumulation Assay (GPR119 CRE-bla CHO-K1 cells, LiveBLAzer-FRET B/G); format: cell-based; conditions: (Emax of the test compound/Emax of MBX-2982)x100, 5 hours incubation
T1 construct: host or cells: CHO-K1 (GPR119 CRE-bla, doxycycline-induced)
T1 sequence (Q8TDV5 1-335): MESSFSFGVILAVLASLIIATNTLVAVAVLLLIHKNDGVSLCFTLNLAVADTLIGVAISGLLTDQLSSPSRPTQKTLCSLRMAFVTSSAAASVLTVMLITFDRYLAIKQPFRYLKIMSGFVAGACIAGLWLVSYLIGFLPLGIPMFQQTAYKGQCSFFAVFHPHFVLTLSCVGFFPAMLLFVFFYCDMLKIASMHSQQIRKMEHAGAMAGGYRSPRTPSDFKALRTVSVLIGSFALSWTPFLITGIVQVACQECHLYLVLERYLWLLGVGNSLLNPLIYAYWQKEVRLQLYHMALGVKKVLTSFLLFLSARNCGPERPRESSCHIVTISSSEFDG

[2] = biological target: T1, GPR119; test: as above; format: cell-based; conditions: for pEC50: 5 hours incubation; for Emax (Fold): maximum activity, response ratio versus non-treated control group
Description: 32 μl of an assay medium (DMEM supplemented with GlutaMax™ 99%, dialyzed FBS 1%, non-essential amino acid 1 mM, HEPES 25 mM, penicillin 100 U/ml, and streptomycin 100 μg/ml) was added to each well of a 384 black well plate and then the GPR119 CRE-bla CHO-K1 cells (Invitrogen) were seeded in 1×10^4 cells per well. Doxycycline was dissolved in the assay medium in the concentration of 1 μg/ml. The resulting solution (4 μl) was added to each well, which was then incubated in a 5% CO 2 incubator at 37° C. for about 20 to 24 hours. Each test compounds were diluted with the assay medium to prepare 10 samples, which have concentrations ranging from […], respectively. Each samples (8 μl) was added to each well, which was then incubated in a 5% CO2 incubator at 37° C. for 5 hours. In case of the control group, the well was treated with a solution (8 μl) prepared by diluting dimethyl sulfoxide (DMSO) in the assay medium to 1%. The substrate mixture (8 μl) was added to each well, which was then left under darkness at room temperature for 2 hours. The substrate mixture contains the followings: 1 mM LiveBLAzer™-FRET B/G(CCF4-AM) substrate 6 μl, solution B 60 μl, solution C 904 μl, and solution D 30 μl.
Fluorescence intensity was determined under the wavelength conditions of 400 nm/465 nm (excitation/emission) for the blue channel and 400 nm/535 nm (excitation/emission) for the green channel, with the fluorescence microplate reader (SpectraFluor Plus. TECAN). The net activity of each well was calculated by subtracting the average value of the cell-free control group from the value of the unstimulated (i.e., non-treated) control group or the stimulated (i.e., test compound-treated) group at each wavelength. MBX-2982 (Metabolex) was used as a control drug. The response ratio was calculated by dividing the net signal ratio (465 nm/535 nm) of the control drug or the test compound by the net signal ratio (465 nm/535 nm) of the non-treated control group. The relative ratio (R.R) was calculated by dividing the maximum activity [Emax (fold)] of the test compound (i.e., % activity in comparison with the background) by the maximum activity [Emax (fold)] of the control drug (MBX-2982) [Emax (% RR)=(Emax of the test compound/Emax of MBX-2982)×100]. EC50 (half maximal effective concentration) was calculated using the software for statistical analysis “Prism 5.0 (GraphPad)”, based on the values obtained according to concentrations of the test compounds.

With `CCCn1ncn(-c2ccc(-c3cnc(N4CCN(C(=O)OC(C)(C)C)C[C@@H]4C)nc3)cc2F)c1=O` [Example 2, (S)-tert-butyl 4-(5-(3-fluoro-4-(5-oxo-1-propyl-1H-1,2,4-triazol-4(5H)-yl)phenyl)pyrimidin-2-yl)-3-methylpiperazin-1-carboxylate] the “Emax (% RR)” value [1] was 101.6 % RR, the pEC50 [2] was 7.50 and the “Emax (Fold)” value [2] was 3.3 Fold.
With `CC(C)n1ncn(-c2ccc(-c3cnc(N4CCN(C(=O)OC(C)(C)C)C[C@@H]4C)nc3)cc2F)c1=O` [Example 3, (S)-tert-butyl 4-(5-(3-fluoro-4-(1-isopropyl-5-oxo-1H-1,2,4-triazol-4(5H)-yl)phenyl)pyrimidin-2-yl)-3-methylpiperazin-1-carboxylate] the “Emax (% RR)” value [1] was 113.4 % RR, the pEC50 [2] was 7.21 and the “Emax (Fold)” value [2] was 3.4 Fold.
In the case of `COCCn1ncn(-c2ccc(-c3cnc(N4CCN(C(=O)OC(C)(C)C)C[C@@H]4C)nc3)cc2F)c1=O` [Example 4, (S)-tert-butyl 4-(5-(3-fluoro-4-(1-(2-methoxyethyl)-5-oxo-1H-1,2,4-triazol-4(5H)-yl)phenyl)pyrimidin-2-yl)-3-methylpiperazin-1-carboxylate], the “Emax (% RR)” value [1] was 108.0 % RR, the pEC50 [2] was 7.26 and the “Emax (Fold)” value [2] was 3.5 Fold.
With `CCc1cnc(N2CCN(c3ncc(-c4ccc(-n5cnn(C)c5=O)c(F)c4)cn3)[C@@H](C)C2)nc1` [Example 7, (S)-4-(4-(2-(4-(5-ethylpyrimidin-2-yl)-2-methylpiperazin-1-yl)pyrimidin-5-yl)-2-fluorophenyl)-1-methyl-1H-1,2,4-triazol-5(4H)-one] the “Emax (% RR)” value [1] was 111.5 % RR, the pEC50 [2] was 7.59 and the “Emax (Fold)” value [2] was 2.5 Fold.
In the case of `C[C@H]1CN(c2ccc(C(F)(F)F)cn2)CCN1c1ncc(-c2ccc(-n3cnn(C)c3=O)c(F)c2)cn1` [Example 8, (S)-4-(2-fluoro-4-(2-(2-methyl-4-(5-(trifluoromethyl)pyridin-2-yl)piperazin-1-yl)pyrimidin-5-yl)phenyl)-1-methyl-1H-1,2,4-triazol-5(4H)-one], the “Emax (% RR)” value [1] was 113.4 % RR, the pEC50 [2] was 8.30 and the “Emax (Fold)” value [2] was 2.5 Fold.
With `CCc1cnc(N2CCN(c3ncc(-c4ccc(-n5cnn(C)c5=O)c(F)c4)cc3C#N)[C@@H](C)C2)nc1` [Example 9, (S)-2-(4-(5-ethylpyrimidin-2-yl)-2-methylpiperazin-1-yl)-5-(3-fluoro-4-(1-methyl-5-oxo-1H-1,2,4-triazol-4(5H)-yl)phenyl)nicotinonitrile] the “Emax (% RR)” value [1] was 118.2 % RR, the pEC50 [2] was 8.52 and the “Emax (Fold)” value [2] was 2.8 Fold.
In the case of `CCc1cnc(N2CCN(c3ncc(-c4ccc(-n5cnn(CC(C)(C)O)c5=O)c(F)c4)cc3C#N)[C@@H](C)C2)nc1` [Example 11, (S)-2-(4-(5-ethylpyrimidin-2-yl)-2-methylpiperazin-1-yl)-5-(3-fluoro-4-(1-(2-hydroxy-2-methylpropyl)-5-oxo-1H-1,2,4-triazol-4(5H)-yl)phenyl)nicotinonitrile], the “Emax (% RR)” value [1] was 102.1 % RR, the pEC50 [2] was 8.30 and the “Emax (Fold)” value [2] was 2.9 Fold.
With `CCc1cnc(N2CCN(c3ncc(-c4ccc(-n5cnn(CC(C)C)c5=O)c(F)c4)cc3C#N)[C@@H](C)C2)nc1` [Example 12, (S)-2-(4-(5-ethylpyrimidin-2-yl)-2-methylpiperazin-1-yl)-5-(3-fluoro-4-(1-isobutyl-5-oxo-1H-1,2,4-triazol-4(5H)-yl)phenyl)nicotinonitrile] the “Emax (% RR)” value [1] was 103.8 % RR, the pEC50 [2] was 9.00 and the “Emax (Fold)” value [2] was 2.6 Fold.
With `CCc1cnc(N2CCN(c3ncc(-c4ccc(-n5cnn(CC(=O)OC)c5=O)c(F)c4)cc3C#N)[C@@H](C)C2)nc1` [Example 13, (S)-methyl 2-(4-(4-(5-cyano-6-(4-(5-ethylpyrimidin-2-yl)-2-methylpiperazin-1-yl)pyridin-3-yl)-2-fluorophenyl)-5-oxo-4,5-dihydro-1H-1,2,4-triazol-1-yl)acetate] the “Emax (% RR)” value [1] was 102.0 % RR, the pEC50 [2] was 6.94 and the “Emax (Fold)” value [2] was 2.9 Fold.
With `CCc1cnc(N2CCN(c3ncc(-c4ccc(-n5cnn(CCNC(=O)OC(C)(C)C)c5=O)c(F)c4)cc3C#N)[C@@H](C)C2)nc1` [Example 16, (S)-tert-butyl 2-(4-(4-(5-cyano-6-(4-(5-ethylpyrimidin-2-yl)-2-methylpiperazin-1-yl)pyridin-3-yl)-2-fluorophenyl)-5-oxo-4,5-dihydro-1H-1,2,4-triazol-1-yl)ethylcarbamate] the “Emax (% RR)” value [1] was 116.8 % RR, the pEC50 [2] was 8.14 and the “Emax (Fold)” value [2] was 3.3 Fold.
`CCc1cnc(N2CCN(c3ncc(-c4ccc(-n5cnn(CC#N)c5=O)c(F)c4)cc3C#N)[C@@H](C)C2)nc1` [Example 18, (S)-5-(4-(1-(cyanomethyl)-5-oxo-1H-1,2,4-triazol-4(5H)-yl)-3-fluorophenyl)-2-(4-(5-ethylpyrimidin-2-yl)-2-methylpiperazin-1-yl)nicotinonitrile] was tested, and the “Emax (% RR)” value [1] was 104.6 % RR, the pEC50 [2] was 7.77 and the “Emax (Fold)” value [2] was 2.9 Fold.
`CCc1cnc(N2CCN(c3ncc(-c4ccc(-n5cnn(CCN(C(=O)OC(C)(C)C)C(C)C)c5=O)c(F)c4)cc3C#N)[C@@H](C)C2)nc1` [Example 19, (S)-tert-butyl 2-(4-(4-(5-cyano-6-(4-(5-ethylpyrimidin-2-yl)-2-methylpiperazin-1-yl)pyridin-3-yl)-2-fluorophenyl)-5-oxo-4,5-dihydro-1H-1,2,4-triazol-1-yl)ethyl(isopropyl)carbamate] was tested, and the “Emax (% RR)” value [1] was 113.0 % RR, the pEC50 [2] was 8.27 and the “Emax (Fold)” value [2] was 3.5 Fold.
For `CCc1cnc(N2CCN(c3ncc(-c4ccc(-n5cnn(CCNC(C)C)c5=O)c(F)c4)cc3C#N)[C@@H](C)C2)nc1.Cl` [Example 20, (S)-2-(4-(5-ethylpyrimidin-2-yl)-2-methylpiperazin-1-yl)-5-(3-fluoro-4-(1-(2-(isopropylamino)ethyl)-5-oxo-1H-1,2,4-triazol-4(5H)-yl)phenyl)nicotinonitrile hydrochloride], the “Emax (% RR)” value [1] was 109.6 % RR, the pEC50 [2] was 8.25 and the “Emax (Fold)” value [2] was 3.1 Fold.
With `CCc1cnc(N2CCN(c3ncc(-c4ccc(-n5cn[nH]c5=O)c(F)c4)cc3C#N)[C@@H](C)C2)nc1` [Example 21, (S)-2-(4-(5-ethylpyrimidin-2-yl)-2-methylpiperazin-1-yl)-5-(3-fluoro-4-(5-oxo-1H-1,2,4-triazol-4(5H)-yl)phenyl)nicotinonitrile] the “Emax (% RR)” value [1] was 102.0 % RR, the pEC50 [2] was 8.70 and the “Emax (Fold)” value [2] was 2.9 Fold.
In the case of `CCc1cnc(N2CCN(c3ncc(-c4ccc(-n5cnn(COC)c5=O)c(F)c4)cc3C#N)[C@@H](C)C2)nc1` [Example 22, (S)-2-(4-(5-ethylpyrimidin-2-yl)-2-methylpiperazin-1-yl)-5-(3-fluoro-4-(1-(methoxymethyl)-5-oxo-1H-1,2,4-triazol-4(5H)-yl)phenyl)nicotinonitrile], the “Emax (% RR)” value [1] was 119.3 % RR, the pEC50 [2] was 7.99 and the “Emax (Fold)” value [2] was 3.2 Fold.

— US9663495B2 (YUHAN CORPORATION, priority 2013, dated 2017)
